ChEMBL document CHEMBL1158013, “Absolute structures of new briarane diterpenoids from junceella fragilis” (J Nat Prod, 1999)
The source made the active and inactive calls.

Columns and labels:
Assay type in all cases: functional, cell-based
P388 = assay: Cytotoxicity against mouse P388 cells
A549 = assay: Cytotoxicity against human A549 cells
HT-29 = assay: Cytotoxicity against human HT-29 cells
SK-MEL-28 = assay: Cytotoxicity against human SK MEL28 cells

Measured: Activity

C=C1CC[C@H](OC(C)=O)[C@]2(C)[C@@H](OC(C)=O)C[C@@H](OC(C)=O)/C(C)=C\[C@@H]3OC(=O)[C@H](C)[C@]3(O)[C@@H](OC(C)=O)[C@@H]12
inactive: P388 | A549 | HT-29 | SK-MEL-28

CC(=O)O[C@H]1CC/C(C)=C\[C@@H]2OC(=O)[C@H](C)[C@@]2(O)[C@@H](OC(C)=O)[C@H]2[C@]3(CC[C@H](OC(C)=O)[C@]12C)CO3
inactive: P388 | A549 | HT-29 | SK-MEL-28

C=C1[C@H]2C[C@@H](OC(C)=O)[C@@]3(C)[C@@H](OC(C)=O)CC[C@]4(CO4)[C@@H]3[C@@H](OC(C)=O)[C@]3(O2)[C@@H](C)C(=O)O[C@H]3[C@H]1Cl
inactive: P388 | A549 | HT-29 | SK-MEL-28

CC(=O)O[C@H]1CC[C@]2(CO2)[C@@H]2[C@H](OC(C)=O)[C@@]3(O)[C@H](/C=C(/C)[C@H](OC(C)=O)C[C@H](OC(C)=O)[C@@]12C)OC(=O)[C@@H]3C
inactive: P388 | A549 | HT-29 | SK-MEL-28

C=C1[C@H](Cl)[C@@H]2OC(=O)[C@H](C)[C@]23O[C@@H]1[C@H](OC(C)=O)[C@H](OC(C)=O)[C@@]1(C)[C@@H](OC(C)=O)CC[C@]2(CO2)[C@@H]1[C@@H]3OC(C)=O
inactive: P388 | A549 | HT-29 | SK-MEL-28

CC(=O)O[C@H]1CC[C@]2(CO2)[C@@H]2[C@H](OC(C)=O)[C@@]3(O)[C@H](/C=C(/C)[C@H](O)C[C@H](OC(C)=O)[C@@]12C)OC(=O)[C@@H]3C
inactive: P388 | A549 | HT-29 | SK-MEL-28

C=C1CC[C@H](OC(C)=O)[C@]2(C)[C@@H](OC(C)=O)C[C@@H](O)/C(C)=C\[C@@H]3OC(=O)[C@H](C)[C@]3(O)[C@@H](OC(C)=O)[C@@H]12
inactive: P388 | A549 | HT-29 | SK-MEL-28

C=C1CC[C@H](OC(C)=O)[C@@]2(C)[C@H]1[C@@H](OC(C)=O)[C@@]13O[C@](O)(C[C@H]2OC(C)=O)C(=C)C[C@@H]1OC(=O)[C@@H]3C
inactive: P388 | A549 | HT-29 | SK-MEL-28
